In the Kinase Knowledgebase extract (Sharma et al. 2016) one finds IC50 data, which are given here for 38 compounds.

One may read the IC50 as the concentration that inhibits the measured activity by half. A high value points to a need for much substance.

The structures appear in SMILES notation.

This assay concerns the target CDK2 (UniProt P24941). The assay can be described thus: Enzyme Assay.
Consider `O=C1NC(=O)C(c2cccc3ccoc23)=C1c1cn2c3c(cccc13)CNCC2`, for which the IC50 amounted to 10.2 nM. The compound `Cn1ccc2c(C3=C(c4cn5c6c(cccc46)CNCC5)C(=O)NC3=O)cccc21` displayed an IC50 of 363 nM. The compound `O=C1NC(=O)C(c2cncc3ccoc23)=C1c1cn2c3c(cccc13)CN(C(=O)N1CCCCC1)CC2` had an IC50 of 35.7 nM. `O=C1NC(=O)C(c2cn3c4c(cccc24)CNCC3)=C1c1cccc2occc12` gave an IC50 of 205 nM. This IC50 lies about 5.7-fold higher than the previous one. Take `O=C1NC(=O)C(c2cnc3cnccn23)=C1c1cn2c3c(cccc13)CN(C(=O)N1CCOCC1)CC2`: the IC50 was more than 20200 nM. Consider `CC(C)C(=O)N1CCn2cc(C3=C(c4cnn5ccccc45)C(=O)NC3=O)c3cccc(c32)C1`, for which the IC50 was 1630 nM.

The compound `O=C1NC(=O)C(c2cnc3cnccn23)=C1c1cn2c3c(cccc13)CNCC2` showed an IC50 of 5580 nM. In turn, `O=C1NC(=O)C(c2cn3c4c(cccc24)CNCC3)=C1c1cccc2c1OCO2` registered an IC50 of 91 nM.

Take `O=C1NC(=O)C(c2cnn3ccccc23)=C1c1cn2c3c(cccc13)CNCC2`: the IC50 is 750 nM. Against the preceding compound, the IC50 is about 8.2-fold higher. On to `O=C1NC(=O)C(c2cnc3ccccn23)=C1c1cn2c3c(cccc13)CNCC2`, for which the IC50 stood at 756 nM. `CC(=O)N1CCn2cc(C3=C(c4cnc5ccccn45)C(=O)NC3=O)c3cccc(c32)C1` showed a half-maximal inhibitory concentration (IC50) of 629 nM.

On to `CC(=O)N1CCn2cc(C3=C(c4cccc5c4OCC5)C(=O)NC3=O)c3cccc(c32)C1`, for which the IC50 is 17.6 nM. `O=C1NC(=O)C(c2cn3c4c(cccc24)CNCC3)=C1c1ccc2c(c1)OCO2` showed an IC50 of 1130 nM. In turn, `CC(=O)N1CCn2cc(C3=C(c4cccc5ccsc45)C(=O)NC3=O)c3cccc(c32)C1` gave an IC50 of 76 nM. The compound `O=C1NC(=O)C(c2cnc3cccnn23)=C1c1cn2c3c(cccc13)CN(C(=O)N1CCCCC1)CC2` returned an IC50 of 434 nM.

Regarding `CC(=O)N1CCn2cc(C3=C(c4cccc5c4OCO5)C(=O)NC3=O)c3cccc(c32)C1`, the IC50 was 60 nM. Regarding `O=C1NC(=O)C(c2cncc3ccoc23)=C1c1cn2c3c(cccc13)CN(C(=O)N1CCOCC1)CC2`, the IC50 was found to be 39.2 nM. `O=C1NC(=O)C(c2cn3c4c(cccc24)CNCC3)=C1c1cccc2c1ccn2CCCO` yielded an IC50 of 297 nM. With `CC(=O)N1CCn2cc(C3=C(c4cccc5ccoc45)C(=O)NC3=O)c3cccc(c32)C1` the figure was 10.5 nM; with `O=C1NC(=O)C(c2cnc3cccnn23)=C1c1cn2c3c(cccc13)CNCC2`, 67.2 nM; with `CN(C)C(=O)N1CCn2cc(C3=C(c4cnn5ccccc45)C(=O)NC3=O)c3cccc(c32)C1`, 2200 nM. In turn, `O=C1NC(=O)C(c2cncc3ccoc23)=C1c1cn2c3c(cccc13)CNCC2` had an IC50 of 6.4 nM. `O=C1NC(=O)C(c2cn3c4c(cccc24)CNCC3)=C1c1cccc2c1OCC2`: the IC50 was 33 nM. This IC50 is about 5.2-fold higher than that of the compound before. For `O=C1NC(=O)C(c2cnc3ccncn23)=C1c1cn2c3c(cccc13)CNCC2`, the IC50 turned out to be 7590 nM. As for `CN(C)C(=O)N1CCn2cc(C3=C(c4cncc5ccoc45)C(=O)NC3=O)c3cccc(c32)C1`, the IC50 was found to be 15.6 nM. `O=C1NC(=O)C(c2cnc3ccncn23)=C1c1cn2c3c(cccc13)CN(C(=O)N1CCOCC1)CC2`: the IC50 is more than 20000 nM. As to `O=C1NC(=O)C(c2cnc3ncccn23)=C1c1cn2c3c(cccc13)CN(C(=O)N1CCOCC1)CC2`, the IC50 is more than 20100 nM. For `O=C1NC(=O)C(c2cnn3ccccc23)=C1c1cn2c3c(cccc13)CN(C(=O)N1CCOCC1)CC2`, the IC50 worked out at 3030 nM. This counts as single-digit micromolar.

Turning to `CC(=O)N1CCn2cc(C3=C(c4cncc5ccoc45)C(=O)NC3=O)c3cccc(c32)C1`, the IC50 was found to be 8.1 nM. In the case of `CN(C)C(=O)N1CCn2cc(C3=C(c4cccc5c4OCO5)C(=O)NC3=O)c3cccc(c32)C1`, the IC50 was determined as 445 nM. With `CC(C)C(=O)N1CCn2cc(C3=C(c4cnc5ccccn45)C(=O)NC3=O)c3cccc(c32)C1`, the IC50 turned out to be 3560 nM. The compound `O=C1NC(=O)C(c2cnc3ncccn23)=C1c1cn2c3c(cccc13)CNCC2` registered an IC50 of 8760 nM. Compared with the last compound, the IC50 is about 2.5-fold higher.

`O=C1NC(=O)C(c2cnc3ncccn23)=C1c1cn2c3c(cccc13)CN(C(=O)N1CCCCC1)CC2` had an IC50 of more than 20000 nM.

For the compound `CN(C)C(=O)N1CCn2cc(C3=C(c4cccc5ccoc45)C(=O)NC3=O)c3cccc(c32)C1`, the IC50 stood at 67.5 nM. `CCC(=O)N1CCn2cc(C3=C(c4cncc5ccoc45)C(=O)NC3=O)c3cccc(c32)C1` came in with an IC50 of 13 nM. `O=C1NC(=O)C(c2cnc3ccccn23)=C1c1cn2c3c(cccc13)CN(C(=O)C1CCOCC1)CC2` returned an IC50 of 5500 nM.

For `O=C1NC(=O)C(c2cnc3cnccn23)=C1c1cn2c3c(cccc13)CN(C(=O)N1CCCCC1)CC2`, the IC50 was more than 20000 nM. `O=C1NC(=O)C(c2cccc3ccsc23)=C1c1cn2c3c(cccc13)CNCC2`: the IC50 was found to be 90 nM.
